Where two headings read alike, the source gives them in different places.
Legend:
patients with T2DM = conditions: cited from earlier work
[1] = system: patients with type 2 diabetes; conditions: human, in vivo; for patients who had adverse events: 24 weeks
Text: Laboratory results were then reviewed for these particular patients to determine which patients actually had clinically important changes in a given laboratory parameter.

[2] = monotherapy, 100 or 200 mg daily

Row | Structure (SMILES) | weight gain (patients with T2DM; 24-week monotherapy studies) | patients achieving a HbA1C of <7% (patients with T2DM; 24-week, background pioglitazone (30 or 45 mg daily)) | mean HbA1C reduction (patients with T2DM; 24-week, sitagliptin 100 mg daily add-on to pioglitazone (30 or 45 mg daily), mean baseline HbA1C 8.1%) | HbA1C (patients with T2DM; [2]) | hypoglycemia (patients with T2DM; [2]) | fasting and postprandial glycaemia (patients with T2DM; monotherapy) | mean placebo-subtracted reduction in HbA1C (patients with T2DM; sitagliptin 100 mg daily added to at least 1,500 mg per day of metformin) | patients achieving a HbA1C of <7% (patients with T2DM; sitagliptin 100 mg daily added to at least 1,500 mg per day of metformin, mean baseline HbA1C 8%) | clinically important decreases in any hematological parameter attributable to drug [1] | responsibility for clinically meaningful elevations in ALT and AST [1] | patients who had adverse events [1]
1 | N[C@@H](CC(=O)N1CCn2c(nnc2C(F)(F)F)C1)Cc1cc(F)c(F)cc1F [sitagliptin, Sitagliptin] | no significant weight gain | 45.4% | 0.7% | significantly reduced | no significant increase in hypoglycemia | reduced both fasting and postprandial glycaemia | 0.65% | 47% | no patient experienced clinically important decreases | not responsible for the variations | 8%
2 | CN(C)C(=N)N=C(N)N [metformin] |  |  |  |  |  |  |  |  |  |  | 10%

From US20080064701A1, “Anti-diabetic combinations” (priority 2007, published 2008)
